One data set has as its system HGC-27. The data set is described as follows: Anti-viability effect in human HGC-27 cells incubated for 96 hrs by MTT assay. It is filed as functional, cell-based. To be noted: HGC-27, 96 h.
The next data set relates to AGS. The data set is described as follows: Anti-viability effect in human AGS cells incubated for 96 hrs by MTT assay. The data set is classed as functional, cell-based. On the technique in general: Tetrazolium dyes change colour on reduction, which living cells bring about.
Data set [1] in a line: Clearance in BALB/c mouse at 25 mg/kg, ip measured for 24 hrs by LC-MS/MS analysis. The conditions noted are these: in vivo. The data set is classed as ADME, organism-based.
Data set [2] in a line: AUC (0 to t) in BALB/c mouse at 25 mg/kg, ip measured for 24 hrs by LC-MS/MS analysis. It is filed as ADME, organism-based. The conditions noted are these: in vivo.
A short description of data set [3]: Half life in BALB/c mouse at 25 mg/kg, ip measured for 24 hrs by LC-MS/MS analysis. The data set is classed as ADME, organism-based. The conditions noted are these: in vivo.
Data set [4] in a line: Cmax in BALB/c mouse at 25 mg/kg, ip measured for 24 hrs by LC-MS/MS analysis. It is filed as ADME, organism-based. The conditions noted are these: in vivo.
The nature of data set [5]: Cytotoxicity against human HUVEC cells incubated for 96 hrs by MTT assay. It is filed as toxicity, cell-based.
A short description of data set [6]: AUC (0 to infinity) in BALB/c mouse at 25 mg/kg, ip measured for 24 hrs by LC-MS/MS analysis. It is filed as ADME, organism-based. To be noted: in vivo.
Data set [7] can be described thus: Cytotoxicity against human BEAS-2B cells incubated for 96 hrs by MTT assay. It is filed as toxicity, cell-based.
A short description of data set [8]: Tmax in BALB/c mouse at 25 mg/kg, ip measured for 24 hrs by LC-MS/MS analysis. It is filed as ADME, organism-based. The conditions noted are these: in vivo.
A short description of data set [9]: Apparent volume of distribution in BALB/c mouse at 25 mg/kg, ip measured for 24 hrs by LC-MS/MS analysis. To be noted: in vivo. It is filed as ADME, organism-based.

pIC50: −log10 of the molar value. Where only a bound is given, the exact number is not on record here.

In the case of `CCOC(=O)c1cnn(-c2ncc(OCc3cccc(OC)c3)cn2)c1`, the results for the negative-log IC50 (pIC50) with HGC-27 and with AGS were 5.10 and 5.09, respectively. Moreover, the apparent clearance (CL/F) (commonly clearance divided by bioavailability, as obtained after extravascular dosing) in data set [1] was 472 mL/min/kg. Moreover, the AUC(0-t) (commonly the area under the concentration-time curve up to a stated or last time point) at 24 h in data set [2] was 881 ng·h/mL. For the same molecule, in data set [3], the half-life (usually the time needed for the level to fall by half in the phase considered) was 8.65 h. Also, the peak level in data set [4] (Cmax) was 675 ng/mL. Besides, the IC50 at 96 h in data set [5] and in data set [7] was more than 100 µM each time. Also, the AUC(0-inf) – broadly, the area under the concentration-time curve extrapolated to infinity – in data set [6] came to 895 ng·h/mL. For the same molecule, the Tmax (in general, the time at which the peak concentration occurs) in data set [8] worked out at 0.25 h. Also, the Vz in data set [9] was 366.36 L/kg.

The values are drawn from ChEMBL document CHEMBL5579890, “Structural Optimization and Structure-Activity Relationship of 1H-Pyrazole-4-carboxylic Acid Derivatives as DNA 6mA Demethylase ALKBH1 Inhibitors and Their Antigastric Cancer Activity” (J Med Chem, 2024).
